Laboratory results published in patent publication US9334289B2, “Cephem compound having catechol or pseudo-catechol structure” (SHIONOGI & CO., LTD., priority 2011, dated 2016).
Converted amounts (≈) assume the structure as drawn.

Tests used:
Assay in all cases: MIC, CLSI broth microdilution, Test Example 2
Type in all cases: cell-based
[1] = system: A. baumannii SR01331; details: Acinetobacter baumannii, SR01331; PER-1, OXA-23.51 ESBL- & OXA-type carbapenemase producing strain; cation-adjusted Iso-Sensitest broth containing human Apo-transferrin; 5×10^5 cfu/mL; read-out: Minimum Inhibitory Concentration (MIC) A. baumannii SR01331
Protocol: (§1) Measurement of Minimum Inhibitory Concentration (MIC: μg/mL) was conducted according to CLSI (Clinical and Laboratory Standards Institute) method, and the amount of bacteria for inoculation was 5×10^5 cfu/mL, and cation-adjusted Iso-Sensitest broth containing human Apo-transferrin was used as a test medium, and the experiment was conducted using broth microdilution method.

[2] = system: E. cloacae NCTC13464; details: Enterobacter cloacae, NCTC13464; CTX-M group 9 ESBL producing strain; cation-adjusted Iso-Sensitest broth containing human Apo-transferrin; 5×10^5 cfu/mL; read-out: Minimum Inhibitory Concentration (MIC) E. cloacae NCTC 13464
Protocol: as §1

[3] = system: E. coli ATCCBAA-196; details: Escherichia coli, ATCCBAA196; TEM-10 ESBL producing strain; cation-adjusted Iso-Sensitest broth containing human Apo-transferrin; 5×10^5 cfu/mL; read-out: Minimum Inhibitory Concentration (MIC) E. coli ATCC BAA-196
Protocol: as §1

[4] = system: E. coli ATCCBAA-200; details: Escherichia coli, ATCCBAA200; SHV-4 ESBL producing strain; cation-adjusted Iso-Sensitest broth containing human Apo-transferrin; 5×10^5 cfu/mL; read-out: Minimum Inhibitory Concentration (MIC) E. coli ATCC BAA-200
Protocol: as §1

[5] = system: E. coli SR01337; details: Escherichia coli, SR01337; TEM-1 ESBL producing strain; cation-adjusted Iso-Sensitest broth containing human Apo-transferrin; 5×10^5 cfu/mL; read-out: Minimum Inhibitory Concentration (MIC) E. coli SR01337
Protocol: as §1

[6] = system: K. pneumoniae ATCC700603; details: Klebsiella pneumoniae, ATCC700603; SHV18 ESBL producing strain; cation-adjusted Iso-Sensitest broth containing human Apo-transferrin; 5×10^5 cfu/mL; read-out: Minimum Inhibitory Concentration (MIC) K. pneumoniae ATCC 700603
Protocol: as §1

[7] = system: P. aeruginosa SR01332; details: Pseudomonas aeruginosa, SR01332; VIM-11 MBL producing strain (carbapenem resistance strain); cation-adjusted Iso-Sensitest broth containing human Apo-transferrin; 5×10^5 cfu/mL; read-out: Minimum Inhibitory Concentration (MIC) P. aeruginosa SR01332
Protocol: as §1

[8] = system: P. aeruginosa SR01335; details: Pseudomonas aeruginosa, SR01335; VIM-1 like MBL producing strain (carbapenem resistance strain); cation-adjusted Iso-Sensitest broth containing human Apo-transferrin; 5×10^5 cfu/mL; read-out: Minimum Inhibitory Concentration (MIC) P. aeruginosa SR01335
Protocol: as §1

Row | SMILES | MIC [1] [µg/mL] | MIC [2] [µg/mL] | MIC [3] [µg/mL] | MIC [4] [µg/mL] | MIC [5] [µg/mL] | MIC [6] [µg/mL] | MIC [7] [µg/mL] | MIC [8] [µg/mL]
1 | CC(C)(O/N=C(\C(=O)N[C@@H]1C(=O)N2C(c3nnn[nH]3)=C(C[N+]3(CCNC(=O)c4cc(O)c(O)c(F)c4)CCCC3)CS[C@H]12)c1nc(N)sc1Cl)C(=O)[O-] [Compound I-104] | 0.5 (≈ 0.63 µM) | 0.125 (≈ 0.157 µM) | ≤ 0.031 | 0.063 (≈ 0.0793 µM) | ≤ 0.031 | 0.125 (≈ 0.157 µM) | 4 (≈ 5.04 µM) | 2 (≈ 2.52 µM)
2 | Nc1nc(/C(=N/O[C@@H](CC(=O)[O-])C(=O)[O-])C(=O)N[C@@H]2C(=O)N3C(c4nnn[n-]4)=C(C[N+]45CCC[C@H]4CN(C(=O)c4cc(O)c(O)c(F)c4)CC5)CS[C@H]23)cs1.[Na+].[Na+] (stereo partly shown) [Compound I-63] | 1 | 0.25 | 0.063 | 0.25 | 0.063 | 0.25 | 2 | 2
3 | CC(C)(O/N=C(\C(=O)N[C@@H]1C(=O)N2C(c3nnn[n-]3)=C(C[N+]3(CCNC(=O)c4ccc(O)c(O)c4Cl)CCCCC3)CS[C@H]12)c1nc(N)sc1Cl)C(=O)[O-].[Na+] [Compound I-32] | 0.25 | 0.063 | ≤ 0.031 | 0.063 | ≤ 0.031 | ≤ 0.031 | 4 | 1
4 | C[N+]1(CC2=C(c3nnn[n-]3)N3C(=O)[C@@H](NC(=O)/C(=N\O[C@@H](CC(=O)[O-])C(=O)[O-])c4csc(N)n4)[C@H]3SC2)CCN(C(=O)c2ccc(O)c(O)c2Cl)CC1.[Na+].[Na+] [Compound I-61] | 1 | 0.125 | 0.063 | 0.25 | 0.063 | 0.125 | 4 | 4
5 | CC(C)(O/N=C(\C(=O)N[C@@H]1C(=O)N2C(c3nnn[n-]3)=C(C[N@+]34CCC[C@H]3CN(C(=O)c3cc(O)c(O)c(Cl)c3)CC4)CS[C@H]12)c1nc(N)sc1Cl)C(=O)[O-].[Na+] [Compound I-29] | 0.5 | 0.063 | ≤ 0.031 | 0.063 | ≤ 0.031 | 0.125 | 4 | 2
6 | Nc1nc(/C(=N/O[C@@H](CC(=O)[O-])C(=O)[O-])C(=O)N[C@@H]2C(=O)N3C(c4nnn[n-]4)=C(C[N+]4(CCNC(=O)c5ccc(O)c(O)c5Cl)CCCCC4)CS[C@H]23)cs1.[Na+].[Na+] [Compound I-67] | 0.25 | 0.063 | ≤ 0.031 | 0.063 | ≤ 0.031 | ≤ 0.031 | 2 | 2
7 | CC(C)(O/N=C(\C(=O)N[C@@H]1C(=O)N2C(c3nnn[n-]3)=C(C[n+]3ccc4cc(O)c(O)cc4c3)CS[C@H]12)c1nc(N)sc1Cl)C(=O)[O-].[Na+] [Compound I-37] | 0.25 | ≤ 0.031 | ≤ 0.031 | 0.063 | ≤ 0.031 | 0.063 | 0.25 | 0.5
8 | CC(C)(O/N=C(\C(=O)N[C@@H]1C(=O)N2C(c3nnn[n-]3)=C(C[n+]3ccc(NC(=O)c4ccc(O)c(O)c4Cl)cc3)CS[C@H]12)c1nc(N)sc1Cl)C(=O)[O-].[Na+] [Compound I-36] | 0.5 | 0.125 | ≤ 0.031 | 0.25 | ≤ 0.031 | 0.5 | 0.5 | 4
9 | CC(C)(O/N=C(\C(=O)N[C@@H]1C(=O)N2C(c3nnn[n-]3)=C(C[n+]3cccc4c3CCCN4C(=O)c3ccc(O)c(O)c3Cl)CS[C@H]12)c1nc(N)sc1Cl)C(=O)[O-].[Na+] [Compound I-28] | 0.5 | 0.5 | 0.125 | 0.5 | ≤ 0.031 | 0.125 | 1 | 1
10 | CC(C)(O/N=C(\C(=O)N[C@@H]1C(=O)N2C(c3nnn[nH]3)=C(C[N@+]34CCC[C@H]3CN(C(=O)c3ccc(O)c(O)c3Cl)CC4)CS[C@H]12)c1nc(N)sc1Cl)C(=O)[O-] [Compound I-105] | 2 (≈ 2.43 µM) | 0.25 (≈ 0.304 µM) | 0.063 (≈ 0.0766 µM) | 0.25 (≈ 0.304 µM) | ≤ 0.031 | 0.25 (≈ 0.304 µM) | 4 (≈ 4.86 µM) | 2 (≈ 2.43 µM)
11 | Cc1cc2cc(O)c(O)cc2c[n+]1CC1=C(c2nnn[n-]2)N2C(=O)[C@@H](NC(=O)/C(=N\OC(C)(C)C(=O)[O-])c3csc(N)n3)[C@H]2SC1.[Na+] [Compound I-121] | 0.125 | 0.063 | ≤ 0.031 | ≤ 0.031 | ≤ 0.031 | ≤ 0.031 | 1 | 0.5
12 | CC(C)(O/N=C(\C(=O)N[C@@H]1C(=O)N2C(c3nnn[n-]3)=C(C[n+]3ccc4cc(O)c(O)cc4c3)CS[C@H]12)c1nsc(N)n1)C(=O)[O-].[Na+] [Compound I-113] | 0.125 | ≤ 0.031 | 0.125 | 0.25 | ≤ 0.031 | 0.125 | 0.5 | 0.25
13 | CC(C)(O/N=C(\C(=O)N[C@@H]1C(=O)N2C(c3nnn[n-]3)=C(C[n+]3ccc(CNC(=O)c4ccc(O)c(O)c4Cl)cc3)CS[C@H]12)c1nsc(N)n1)C(=O)[O-].[Na+] [Compound I-114] | 0.5 | 0.25 | 0.5 | 1 | ≤ 0.031 | 1 | 1 | 1
14 | CC(C)(O/N=C(\C(=O)N[C@@H]1C(=O)N2C(c3nnn[n-]3)=C(C[N+]3(CCNC(=O)c4ccc(O)c(O)c4Cl)CCCC3)CS[C@H]12)c1csc(N)n1)C(=O)[O-].[Na+] [Compound I-82] | 0.5 | 0.125 | 0.125 | 0.25 | ≤ 0.031 | 0.125 | 4 | 1
